# Laboratory results as given in paper PMC3663906 (Journal of medicinal chemistry, 2013).
# pIC50: −log10 of the molar value.
# Legend:
# [1] = tested on: endocytosis of transferrin in T. brucei; settings: cited from earlier work
# HepG2 cells = experiment: HepG2 cell toxicity assay; type: cell-based; settings: Homo sapiens, HepG2, read-out: HepG2 IC50, MTT cytotoxicity, Tables 5 and 6
# [2] = Mouse oral pharmacokinetic study; type: in vivo
# [3] = tested on: endocytosis of transferrin in T. brucei; experiment: Receptor-mediated endocytosis of transferrin in the trypanosome
# T. brucei [4] = experiment: Trypanosome cell cycle analysis
# T. brucei brucei CA427 = experiment: Mouse model of HAT
# T. brucei [5] = settings: cited from earlier work
smiles,measurement,setting,value
"CS(=O)(=O)CCNCc1ccc(-c2ccc3ncnc(Nc4ccc(OCc5cccc(F)c5)c(Cl)c4)c3c2)o1 [Compound 1, lapatinib]",effect on endocytosis of transferrin in the trypanosome,[1],inhibited endocytosis of transferrin
"O=S(=O)(c1cccc(-c2ccc3ncnc(Nc4ccc(OCc5cccc(F)c5)c(Cl)c4)c3c2)c1)N1CCCCC1 [Compound 10m, N-(3-chloro-4-((3-fluorobenzyl)oxy)phenyl)-6-(3-(piperidin-1-ylsulfonyl)phenyl)quinazolin-4-amine]",pIC50,HepG2 cells,< 4.70
"Fc1cccc(COc2ccc(Nc3ncnc4ccc(-c5cccc(N6CCOCC6)c5)cc34)cc2Cl)c1 [Compound 23a, N-(3-chloro-4-((3-fluorobenzyl)oxy)phenyl)-6-(3-morpholinophenyl)quinazolin-4-amine]",oral bioavailability,[2],orally bioavailable
same,effect on receptor-mediated endocytosis of transferrin,[3],no effect
same,effect on the cell cycle,T. brucei [4],"blocks duplication of the kinetoplast and arrests cytokinesis, without inhibiting division of the trypanosome nucleus"
same,fraction of cells containing two nuclei and one kinetoplast (1K2N),T. brucei [4]; DAPI microscopy,selectively increased
same,"number of cells containing one nucleus (1K1N, 1Ke1N)",T. brucei [4]; DAPI microscopy,reduced
same,survival on day 8 (all untreated mice had died),T. brucei brucei CA427; 10 mg/kg twice per day i.p.,all alive
same,survival,T. brucei brucei CA427; 10 mg/kg twice per day oral,died in the same time frame as control mice
same,toxicity in multi-day regimen,"T. brucei brucei CA427; mouse, 40 mg/kg dose once per day",drug-related toxicity was observed
C=CC(=O)Nc1cc2c(Nc3ccc(F)c(Cl)c3)ncnc2cc1OCCCN1CCOCC1 [canertinib],EC50 for killing T. brucei,T. brucei [5],low micromolar range
"O=S(=O)(c1ccc(-c2ccc3ncnc(Nc4ccc(OCc5cccc(F)c5)c(Cl)c4)c3c2)cc1)N1CCCCC1 [Compound 10l, N-(3-chloro-4-((3-fluorobenzyl)oxy)phenyl)-6-(4-(piperidin-1-ylsulfonyl)phenyl)quinazolin-4-amine]",pIC50,HepG2 cells,< 4.70
"O=S(=O)(c1cccc(-c2ccc3ncnc(Nc4ccc(OCc5cccc(F)c5)c(Cl)c4)c3c2)c1)N1CCOCC1 [Compound 10k, N-(3-chloro-4-((3-fluorobenzyl)oxy)phenyl)-6-(3-(morpholinosulfonyl)phenyl)quinazolin-4-amine]",pIC50,HepG2 cells,< 4.70
